Like-named read-outs stand apart in the source and are kept apart here.

Holding throughout (assay type): in vivo
Data set [1] has as its system Tobacco Cutworm (Spodoptera litura) Larvae. The experiment in a line: Test against tobacco cutworm (Spodoptera litura) larvae, leaf dip. Conditions: active compound concentration 100 ppm; third-instar larvae; after 7 days. As for the experimental part:
(§1) Unless nomentioned otherwise, the test solutions were prepared as follows:
(§2) Containing as solvent: Dimethylformamide, 3 parts by weight; and as emulsifier: Polyoxyethylene alkyl phenyl ether, 1 part by weight
(§3) To prepare the test solution, 1 part by weight of an active compound is mixed with the above-mentioned amount of solvent containing the above-mentioned amount of emulsifier, and the mixture is diluted with water to the desired concentration.
The leaves of sweet potato were immersed in the test solution at the appropriate concentration, and the leaves were dried in air. The leaves were then placed in a petri dish having a diameter of 9 cm, and ten third-instar larvae of tobacco cutworm were released therein. The petri dish was placed in a temperature chamber at 25° C. After 2 days and 4 days sweet potato leaves were additionally added. After 7 days, the number of dead larvae was counted, to calculate the insecticidal activity. An insecticidal activity of 100% means that all larvae were killed, whereas an insecticidal activity of 0% means that no larva was killed. In the current test, the results of two petri dishes for each partition were averaged.

Data set [2] concerns Cattle Tick (Boophilus microplus). The experiment in a line: Test against cattle tick, injection. The note with it: 20 μg/animal injected; after 7 days; 100% means that all eggs are infertile. Here is the method:
(§4) Solvent: Dimethylsulfoxide
In order to make a suitable test solution, 10 mg of an active compound is dissolved in 0.5 ml of the above mentioned solvent, and the mixture is diluted with water to a predetermined concentration.
The test solution is injected into the abdomens of five fully-fed female adult cattle ticks. The cattle ticks are transferred to a replica plate, and are bred in a breeding vessel for a certain time period. Egg deposition of fertile eggs is monitored.
After 7 days the mortality rate of the cattle ticks is measured. 100% means that all eggs are infertile; and 0% means that all eggs are fertile.

In data set [3] the test system is Two-Spotted Spider Mite (Tetranvchus urticae). The data set can be described thus: Test against two-spotted spider mite, spray on kidney bean. The note with it: active compound concentration 100 ppm; adult mites; after 7 days. Here is the method: as §1, §2, §3
50 to 100 adult two-spotted spider mites were inoculated onto the leaves of kidney beans at the two-true leaf stage, which plant had been cultivated in a pot having a diameter of 6 cm. After one day, test solution at the appropriate concentration was sprayed thereon in a sufficient amount using a spray gun. After the spraying, the plant pot was placed inside a greenhouse, and after 7 days, the acaricidal activity was calculated. An acaricidal activity of 100% means that all mites were killed, whereas an acaricidal activity of 0% means that no mite was killed.

Data set [4] relates to Cat Fleas (Ctenocephalides fells). The experiment in a line: Test against cat fleas, blood feeding. The note with it: for mortality at 100 ppm: Ctenocephalides, 48 h, read-out: mortality rate. Here is the method:
as §4
About 10 to 15 adult cat fleas are provided in a container exclusive for fleas. An exclusive container containing the test solution is covered with Parafilm, reversed upside down, and then mounted on top of the flea container, so that the cat fleas can suck the blood in the container. The test solution is maintained at 37° C., and the flea container is maintained at room temperature. After 2 days the mortality rate of the cat fleas is measured. 100% means that all of the cat fleas have been killed, while 0% means that all are alive.

The test system of data set [5] is Cucurbit Leaf Beetle (Aulacophora femoralis). The experiment in a line: Test against cucurbit leaf beetle, cucumber leaf dip. The note with it: active compound concentration 100 ppm; second-instar larvae; after 7 days. As for the experimental part:
as §1, §2, §3
Cucumber leaves were immersed in the test solution at the appropriate concentration, and the leaves were dried in air. The leaves were then placed in a plastic cup containing aseptically sterilized black soil, and five second-instar larvae of cucurbit leaf beetle were released therein. After 7 days, the number of dead larvae was counted, and thus the insecticidal activity was calculated. An insecticidal activity of 100% means that all beetles were killed, whereas an insecticidal activity of 0% means that no beetle was killed.

For data set [6], the system named is Strain of Green Peach Aphid (Mvzus persicas) which is Resistant to Organic Phosphorus and Carbamate Agents. The data set can be described thus: Test against resistant green peach aphid, spray on egg plant. Conditions: active compound concentration 500 ppm; after 7 days. Here is the method:
as §1, §2, §3
About 30 to 50 of the resistant green peach aphids were inoculated per seedling, onto the leaves of egg plant at the two-true leaf stage, which plant had been cultivated in a pot having a diameter of 6 cm. One day after the inoculation, the test solution at the appropriate concentration was sprayed thereon in a sufficient amount using a spray gun. After the spraying, the plant pot was placed in a greenhouse at 28° C., and after 7 days, the insecticidal activity was calculated. An insecticidal activity of 100% means that all aphids were killed, whereas an insecticidal activity of […] means that no aphid was killed. The test was repeated two times.

Data set [7] concerns Sheep Blowfly (Lucillia cuprina). The data set can be described thus: Test against sheep blowfly. Conditions: active compound concentration 100 ppm; after 2 days. As for the experimental part:
as §4
(§5) In order to make a suitable test solution, 10 mg of an active compound is dissolved in 0.5 ml of the solvent, and the mixture is diluted with water to a predetermined concentration.
Minced horse meat having a size of 1 square centimeter, and 0.5 ml of the test solution are placed in a test tube, and about 20 to 30 adult sheep blowflies are introduced therein.
After 2 days the mortality rate of the sheep blowflies is measured. 100% means that all of the sheep blowflies have been killed, and 0% means that all are alive.

In data set [8] the test system is Housefly (Musca domestica). The data set can be described thus: Test against housefly. Conditions: for mortality at 100 ppm: Musca domestica, 48 h, read-out: mortality rate. Here is the method:
as §4, §5
In a preliminary stage of the test, a piece of sponge having a certain size is soaked with a mixture of sugar and the test solution is placed in a test container. Ten adult houseflies are introduced to the container, and the container is covered with a perforated lid.
After 2 days, the mortality rate of the houseflies is measured. At that time, 100% means that all of the houseflies have been killed, and 0% means that all are alive.

For data set [9], the system named is Nymphs of the tick Amblyomma hebraeum. The experiment in a line: Amblyomma hebraeum test, nymph immersion. Conditions: 48 h, read-out: activity (mortality in %). As for the experimental part: as §4
To produce a suitable preparation of active compound. 1 part by weight of active compound is mixed with the stated amount of solvent, and the concentrate is diluted with containing solvent to the desired concentration.
Nymphs of the tick Amblyomma hebraeum are placed in perforated plastic beakers and immersed in aqueous compound solution for one minute. Ticks are transferred to a filter paper in a Petri dish and incubated in a climate chamber for 42 days.
After 2 days mortality in % is determined. 100% means that all the ticks have been killed; 0% means that none of the ticks have been killed.

The test system of data set [10] is adult engorged female Boophilus microplus ticks. The experiment in a line: Boophilus microplus test, immersion of engorged females. Conditions: Rhipicephalus microplus, 168 h, read-out: activity (mortality in %). As for the experimental part:
Solvent: Dimethylsulfoxid
To produce a suitable preparation of active compound, 10 mg of active compound are dissolved in 0.5 ml solvent, and the concentrate is diluted with water to the desired concentration.
Eight to ten adult engorged female Boophilus microplus ticks are placed in perforated plastic beakers and immersed in aqueous compound solution for one minute. Ticks are transferred to a filter paper in a plastic tray. Egg deposition of fertile eggs is monitored after.
After 7 days mortality in % is determined. 100% means that all the ticks have been killed; 0% means that none of the ticks have been killed.

Setting [11] is: active compound concentration 100 ppm in blood, adult fleas, after 2 days.
[12] abbreviates: application rate 100 ppm, immersed one minute, after 2 days.
[13] abbreviates: application rate 100 ppm, immersed one minute, after 7 days.

For `FC(F)(F)C1(c2cc(Cl)cc(Cl)c2)CN=C(c2ccc(-n3cncn3)c(Br)c2)C1` (stereo not drawn) [1-21], the insecticidal activity in data set [1], in data set [5] and in data set [6] was 100% in each case. The mortality rate is given as 100% in data set [2]; “at least 90%” in data set [4] (setting [11]); 100% in data set [7]; 100% in data set [8] (active compound concentration 100 ppm, adult houseflies, after 2 days). For the same molecule, the acaricidal activity in data set [3] came out at 100%.
Consider `N#Cc1cc(C2=NCC(c3cc(Cl)c(Cl)c(Cl)c3)(C(F)(F)F)C2)ccc1-n1cncn1` (stereo not drawn) [1-78, 2-(1H-1,2,4-triazol-1-yl)-5-[3-(3,4,5-trichlorophenyl)-3-(trifluoromethyl)-3,4-dihydro-2H-pyrrol-5-yl]-benzonitrile], for which the insecticidal activity in [1], in data set [5] and in data set [6] was 100% in each case. In addition, the acaricidal activity in data set [3] is recorded as 100%. For the same molecule, the mortality at 100 ppm in data set [9] (setting [12]), in data set [10] (setting [13]), in [4] (setting [11]) and in data set [8] was no less than 80% each time.
In turn, `CC(=O)NCc1ccc(C2=NCC(c3cc(Cl)cc(Cl)c3)(C(F)(F)F)C2)cc1Br` (stereo not drawn) [2-13, N-{2-bromo-4-[3-(3,5-dichlorophenyl)-3-(trifluoromethyl)-3,4-dihydro-2H-pyrrol-5-yl]benzyl}acetamide] yielded an insecticidal activity in data set [1] of 100%. For the same molecule, the mortality at 100 ppm in data set [10] (setting [13]), in [4] (setting [11]) and in data set [8] was no less than 80% each time.
Consider `CCNC(=O)NCc1ccc(C2=NCC(c3cc(Cl)c(Cl)c(Cl)c3)(C(F)(F)F)C2)cc1Br` (stereo not drawn) [2-195], for which the insecticidal activity in data set [1], in [5] and in data set [6] was 100% in each case. In addition, the acaricidal activity in data set [3] worked out at 100%.
Take `CCC(=O)NCc1ccc(C2=NCC(c3cc(Cl)c(Cl)c(C(F)(F)F)c3)(C(F)(F)F)C2)cc1C(F)(F)F` (stereo not drawn) [2-205]: the insecticidal activity in [1], in data set [5] and in data set [6] was 100% throughout. Further, the acaricidal activity in data set [3] is 100%.
As for `CC(=O)NCc1ccc(C2=NCC(c3cc(Cl)c(Cl)c(Cl)c3)(C(F)(F)F)C2)c2ccccc12` (stereo not drawn) [11-5], the insecticidal activity in [1], in data set [5] and in [6] was 100% each time. For the same molecule, in data set [3], the acaricidal activity amounted to 100%.
Consider `CCC(=O)NCc1ccc(C2=NCC(c3cc(Cl)c(Cl)c(Cl)c3)(C(F)(F)F)C2)c2ccccc12` (stereo not drawn) [11-6], for which the insecticidal activity in data set [1], in [5] and in data set [6] was 100% each time. The same molecule yielded an acaricidal activity in data set [3] of 100%.
With `O=C(NCc1ccc(C2=NCC(c3cc(Cl)c(Cl)c(Cl)c3)(C(F)(F)F)C2)c2ccccc12)C1CC1` (stereo not drawn) [11-7], the insecticidal activity in [1], in data set [5] and in [6] was 100% each time. The acaricidal activity in [3] came out at 100%.
In the case of `O=C(CC(F)(F)F)NCc1ccc(C2=NCC(c3cc(Cl)c(Cl)c(Cl)c3)(C(F)(F)F)C2)c2ccccc12` (stereo not drawn) [11-8], the insecticidal activity in data set [1], in [5] and in [6] was 100% in each case. Also, the acaricidal activity in [3] was 100%.
As to `CS/C(=N\C[Si](C)(C)C)c1ccc(COC(C)=O)c2ccccc12` [15-2, {4-[(Z)-(methylsulfanyl){[(trimethylsilyl)methyl]imino}methyl]naphthalen-1-yl}methyl acetate], the mortality at 100 ppm in data set [9], in data set [10], in data set [4] and in [8] was no less than 80% in each case.
`N#Cc1cc(C2=NCC(c3cc(Cl)cc(Cl)c3)(C(F)(F)F)C2)ccc1-n1cncn1` (stereo not drawn) [Compound No. 1-39, 5-[3-(3,5-dichlorophenyl)-3-(trifluoromethyl)-3,4-dihydro-2H-pyrrol-5-yl]-2-(1H-1,2,4-triazol-1-yl)benzonitrile]: the insecticidal activity in data set [1] is listed as 100%; in [5] it was 100%; in data set [6], 98%. Further, the acaricidal activity in data set [3] worked out at 98%. The mortality (usually the share of the test organisms that died) at 100 ppm in data set [9] (setting [12]) is no less than 80%; in [10] (setting [13]), no less than 80%; in [4] (setting [11]) it was 100%; in data set [8], 100%. Besides, the mortality rate in [7] was determined as 100%.
